Measurements: article PMC11206203, “Peptide macrocyclisation via intramolecular interception of visible-light-mediated desulfurisation” (Chemical Science, 2024)
Where a SMILES comes first, the peptide text is derived from it. [ ]: non-standard residue; d: D form. Nle = CCCC[C@H](N)C(=O)O

How the values were obtained:
MCL-1 = target: T1, MCL-1 (Homo sapiens, UniProt Q07820); test: Competitive inhibition, fluorescence anisotropy, MCL-1 and fluorophore-labelled WT BH3 sequence; assay type: binding; conditions: competition FA; MCL-1 (residues 172-327), tracer FAM-Ahx-BID / fluorophore-labelled WT BH3 sequence; 20 mM Tris, 150 mM NaCl, pH 7.6; 384-well plates, tested in triplicate; excitation 480 nm, emission 535 nm; fit to sigmoidal logistic model; Fig. S160; read-out: inhibitory potency (competitive inhibition, fluorescence anisotropy)
T1 construct: MCL-1 (residues 172-327) was expressed and purified as described previously; made in house
T1 sequence (Q07820 172-327): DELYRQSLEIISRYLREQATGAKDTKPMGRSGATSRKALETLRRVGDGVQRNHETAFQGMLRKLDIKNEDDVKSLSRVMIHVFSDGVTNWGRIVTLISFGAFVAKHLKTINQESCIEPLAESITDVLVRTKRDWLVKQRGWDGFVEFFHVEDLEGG
Excerpt: Finally, to explore internal peptide ‘stapling’ using this strategy, we selected a region of a BH3 protein – BID80–102, that binds MCL-1 to regulate apoptosis.[53,72] This PPI is known to play a significant role in cancer development and progression.[53,72] Three sequences (54–56) were synthesised with alGly and Cys positioned to afford either an internal i, i + 4 staple (57, 59; Fig. 5 and ESI ^†) or i, i + 7 staple (58; Fig. 5 and ESI ^†), fixing the length of either one or two full helical turns of the peptide, respectively. In addition, peptide macrocycle 26 is a head-to-tail macrocycle representing the i, i + 4 binding region of these longer sequences. The staple for all three peptides was successfully formed under the standard conditions, albeit in lower yield than the N- to C-terminal cyclisations previously explored (57–59). The alpha-helical structure of peptide 59 was assessed via CD spectroscopy. […]
All samples were prepared in 20mM Tris, 150 mM NaCl, pH 7.6 solutions. All assays were performed using 384 -well plates (Greiner Bio -one, UK) and tested in triplicate using an EnVisionTM 2103 MultiLabel plate reader (Perkin Elmer; Waltham, MA, USA). […] Measured data were processed and analysed as previously described. […]

[1] = CD spectroscopy, alpha-helical structure; assay type: physicochemical; conditions: alpha-helical content by CD; Fig. S159
[2] = C(sp3)-C(sp3) bond formation by visible-light-mediated Cys desulfurisation: alanyl radical adds to terminal alkene of allylglycine (or O-allyl Ser, pentenylGly, acrylamide); TCEP 50 eq (25 mM), (Ir[dF(CF3)ppy]2(dtbpy))PF6 1 mol%, 450 nm blue LED; unprotected peptides; conditions: from C=CC[C@H](NC(=O)[C@H](C)NC(=O)[C@H](CC(C)C)NC(=O)[C@H](Cc1c[nH]cn1)NC(=O)[C@H](CCCNC(=N)N)NC(=O)[C@H](C)NC(=O)[C@@H](NC(=O)[C@H](CC(N)=O)NC(=O)[C@H](CCCNC(=N)N)NC(=O)[C@@H](NC(=O)[C@@H](NC(=O)[C@H](CC(=O)O)NC(=O)[C@H](CCC(=O)O)NC(C)=O)[C@@H](C)CC)[C@@H](C)CC)[C@@H](C)CC)C(=O)N[C@H](C(=O)NCC(=O)N[C@@H](CC(=O)O)C(=O)N[C@@H](CS)C(=O)N[C@@H](CCCC)C(=O)N[C@@H](CC(=O)O)C(=O)N[C@@H](CCCNC(=N)N)C(=O)N[C@@H](CO)C(=O)N[C@H](C(=O)N[C@@H](Cc1c[nH]c2ccccc12)C(N)=O)[C@@H](C)CC)C(C)C; 17-membered ring; 6 M Gdn.HCl, 0.1 M Na2HPO4 pH 7.5-8.0 / MeCN 9:1; 0.5 mM; 25.0 °C

| IC50 (MCL-1) | helicity (CD spectroscopy) [1] | Compound | ring closure, isolated yield [2] |
| --- | --- | --- | --- |
| 7.4 ± 0.9 µM |  | CCCC[C@H](NC(=O)[C@H](CO)NC(=O)[C@H](CC(=O)O)NC(=O)CNC(=O)[C@@H](NC(=O)[C@H](CCC(N)=O)NC(=O)[C@H](C)NC(=O)[C@H](CC(C)C)NC(=O)[C@H](Cc1c[nH]cn1)NC(=O)[C@H](CCCNC(=N)N)NC(=O)[C@H](C)NC(=O)[C@@H](NC(=O)[C@H](CC(N)=O)NC(=O)[C@H](CCCNC(=N)N)NC(=O)[C@@H](NC(=O)[C@@H](NC(=O)[C@H](CC(=O)O)NC(=O)[C@H](CCC(=O)O)NC(C)=O)[C@@H](C)CC)[C@@H](C)CC)[C@@H](C)CC)C(C)C)C(=O)N[C@@H](CC(=O)O)C(=O)N[C@@H](CCCNC(=N)N)C(=O)N[C@@H](CO)C(=O)N[C@H](C(=O)N[C@@H](Cc1c[nH]c2ccccc12)C(N)=O)[C@@H](C)CC [BID-wt, reference compound] (Ac-EDIIRNIARHLAQVGDS[Nle]DRSIW-NH2) |  |
|  | 38% | Ac-EDIIRNIARHLA(alG)VGDCNLDRSIW-NH2 [compound 56, starting peptide carrying the allyl glycine residue] |  |
| 26 ± 4 µM |  | CCCC[C@H](NC(=O)[C@@H]1CCCC[C@H](NC(=O)[C@H](C)NC(=O)[C@H](CC(C)C)NC(=O)[C@H](Cc2c[nH]cn2)NC(=O)[C@H](CCCNC(=N)N)NC(=O)[C@H](C)NC(=O)[C@@H](NC(=O)[C@H](CC(N)=O)NC(=O)[C@H](CCCNC(=N)N)NC(=O)[C@@H](NC(=O)[C@@H](NC(=O)[C@H](CC(=O)O)NC(=O)[C@H](CCC(=O)O)NC(C)=O)[C@@H](C)CC)[C@@H](C)CC)[C@@H](C)CC)C(=O)N[C@@H](C(C)C)C(=O)NCC(=O)N[C@@H](CC(=O)O)C(=O)N1)C(=O)N[C@@H](CC(=O)O)C(=O)N[C@@H](CCCNC(=N)N)C(=O)N[C@@H](CO)C(=O)N[C@H](C(=O)N[C@@H](Cc1c[nH]c2ccccc12)C(N)=O)[C@@H](C)CC [compound 59] | 49% |
